{"source": "patent US20210017200A1", "about": "“Hydrocarbyl Tin Complex with Antitumor Activity and Preparation Method Thereof” (priority 2020, published 2021)", "assay_type_in_all_cases": "cell-based", "key": {"[1]": {"test_system": "HepG2 (liver cancer cells)", "details": "MTT, 72 hours", "method": "(§1) MCF-7, HT-29, A549 and HepG2 cells are got from American Tissue Culture Collection, which are cultured with the culture medium containing 10% bovine fetal serum in a CO2-containing incubator at 37° C. The MTT method is used to detect cell proliferation and growth inhibition. The number of experimental cells is adjusted to obtain the absorbance at 570 nm, 6 concentrations are set for the compound test solution (0.1 nmol/L˜10 μmol/L). The cells are treated for 72 hours. At least 3 parallel experiments and 3 repeated experiments are conducted for each concentration. The IC50 value is determined by statistical analysis.\n(§2) Taking cisplatin as the contrast, the in-vitro growth inhibitory activity of Compound 1 and Compound 2 on tumor cells are tested, including MCF7 (human breast cancer cells), HT-29 (human colon cancer cells), A549 (human lung cancer cells) and HepG2 (liver cancer cells)."}, "[2]": {"test_system": "MCF7 (human breast cancer cells)", "details": "MTT, 72 hours", "method": "as §1, §2"}, "[3]": {"test_system": "HT-29 (human colon cancer cells)", "details": "HT-29 cells, MTT, 72 hours", "method": "as §1, §2"}, "[4]": {"test_system": "A549 (human lung cancer cells)", "details": "MTT, 72 hours", "method": "as §1, §2"}}}
{"substance": "Tri-n-butyltin (IV) (4-methoxyphenyl) Acetylenyl Phosphonic Acid Derivatives [Compound 1]", "values": [{"measurement": "IC50", "setting": "[1]", "value": 0.329, "unit": "µM"}, {"measurement": "IC50", "setting": "[2]", "value": 0.853, "unit": "µM"}, {"measurement": "IC50", "setting": "[3]", "value": 0.065, "unit": "µM"}, {"measurement": "IC50", "setting": "[4]", "value": 0.243, "unit": "µM"}]}
